Reference: US10407422B2, “Triazolopyridine inhibitors of myeloperoxidase” (priority 2015, dated 2019)

biological target: myeloperoxidase (MPO) (Homo sapiens (Human), UniProt P05164); experiment: MPO peroxidation assay (Amplex Red assay); format: biochemical; details: potency range class
Method: MPO Peroxidation Assay (Amplex Red Assay) MPO peroxidation activity was measured in 100 mM KPi (pH 7.4) by utilizing the non-fluorescent reagent Amplex Red (Invitrogen Cat. #A12222) which can be oxidized to the highly fluorescent resorufin. Amplex Red is oxidized by the peroxidase action of MPO to resorufin. Reactions were carried out in 50 μL total volume by adding a 25 μL mixture of 200 pM myeloperoxidase and 40 nM H2O2(Sigma #349887) to 100 nL inhibitor in 100% DMSO in a 384 well Perkin Elmer Optiplate. Enzyme and compound were preincubated for ten minutes at room temperature. After the ten minute preincubation, 25 μL of an Amplex Red mixture containing 200 μM Amplex Red and 10 mM H2O2 was added to the plate. Kinetic determinations were carried out immediately on a Perkin Elmer Envision (15 minute kinetic read, Ex: 535 nm, Em: 590 nm). IC50 values were calculated by determining the slope of the linear portion of the kinetic trace (180-540 secs), and using that calculated slope to determine % inhibition occurring at each concentration of inhibitor using the following equation: [formula] where A=minimal Y value (activity level of inhibited sample), B=maximal Y value (activity level of uninhibited sample), C=Log IC50, D=Hill Slope, x=concentration of inhibitor. MPO Chlorination Assay (APF Assay)

Sequence of myeloperoxidase (MPO) (P05164 49-745): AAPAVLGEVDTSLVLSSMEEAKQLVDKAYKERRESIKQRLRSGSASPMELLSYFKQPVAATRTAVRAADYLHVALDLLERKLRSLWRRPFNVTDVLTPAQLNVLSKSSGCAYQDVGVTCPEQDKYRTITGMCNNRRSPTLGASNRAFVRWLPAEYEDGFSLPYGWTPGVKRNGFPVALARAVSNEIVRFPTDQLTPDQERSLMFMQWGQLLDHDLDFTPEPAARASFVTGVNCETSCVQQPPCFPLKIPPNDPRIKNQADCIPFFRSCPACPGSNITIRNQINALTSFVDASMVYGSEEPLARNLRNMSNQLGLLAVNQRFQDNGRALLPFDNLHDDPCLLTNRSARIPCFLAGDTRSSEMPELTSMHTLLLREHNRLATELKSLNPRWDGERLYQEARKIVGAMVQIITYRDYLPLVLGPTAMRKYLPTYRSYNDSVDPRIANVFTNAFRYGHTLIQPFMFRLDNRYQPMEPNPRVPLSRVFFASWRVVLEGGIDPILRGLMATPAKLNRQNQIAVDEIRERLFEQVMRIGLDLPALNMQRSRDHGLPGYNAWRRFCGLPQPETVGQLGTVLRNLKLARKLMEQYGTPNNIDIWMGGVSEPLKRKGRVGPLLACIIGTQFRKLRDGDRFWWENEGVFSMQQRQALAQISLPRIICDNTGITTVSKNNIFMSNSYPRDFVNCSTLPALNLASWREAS

Which IC50 does the source give for `Nc1cc(Cc2cnn(-c3ccc(Br)cc3)c2)c2nn[nH]c2n1` [Example 8, 7-((1-(4-Bromophenyl)-1H-pyrazol-4-yl)methyl)-3H-[1,2,3]triazolo[4,5-b]pyridin-5-amine] here?
Its IC50 is 1 to 100 nM.

Which IC50 does the source give for `Nc1cc(Cc2cnn(-c3ccc4ccccc4c3)c2)c2nn[nH]c2n1` [Example 12, 7-((1-(Naphthalen-2-yl)-1H-pyrazol-4-yl)methyl)-3H-[1,2,3]triazolo[4,5-b]pyridin-5-amine] here?
The IC50 was 101 to 999 nM.

How did the IC50 turn out when `Cc1ccc(-n2cc(Cc3cc(N)nc4[nH]nnc34)cn2)c2ccccc12` [Example 13, 7-((1-(4-Methylnaphthalen-1-yl)-1H-pyrazol-4-yl)methyl)-3H-[1,2,3]triazolo[4,5-b]pyridin-5-amine] was run?
Its IC50 is 1 to 100 nM.

Which IC50 does the source give for `Nc1cc(Cc2cnn(-c3cccc(C4CC4)c3)c2)c2nn[nH]c2n1` [Example 15, 7-((1-(3-Cyclopropylphenyl)-1H-pyrazol-4-yl)methyl)-3H-[1,2,3]triazolo[4,5-b]pyridin-5-amine] here?
Its IC50 is 1 to 100 nM.

`Nc1cc(Cc2cnn(-c3cccc4cccnc34)c2)c2nn[nH]c2n1` [Example 16, 7-((1-(Quinolin-8-yl)-1H-pyrazol-4-yl)methyl)-3H-[1,2,3]triazolo[4,5-b]pyridin-5-amine] was tested. Which IC50 did it give?
The IC50 was 101 to 999 nM.

How did the IC50 turn out when `Nc1cc(Cc2cnn(-c3ccc(F)cn3)c2)c2nn[nH]c2n1` [Example 17, 7-((1-(5-Fluoropyridin-2-yl)-1H-pyrazol-4-yl)methyl)-3H-[1,2,3]triazolo[4,5-b]pyridin-5-amine] was run?
Its IC50 is 1 to 100 nM.

Which IC50 does the source give for `Nc1cc(Cc2cnn(-c3cncc4ccccc34)c2)c2nn[nH]c2n1` [Example 18, 7-((1-(Isoquinolin-4-yl)-1H-pyrazol-4-yl)methyl)-3H-[1,2,3]triazolo[4,5-b]pyridin-5-amine] here?
The IC50 was 1 to 100 nM.

Which IC50 does the source give for `Nc1cc(Cc2cnn(-c3cncc(F)c3)c2)c2nn[nH]c2n1` [Example 22, 7-((1-(5-Fluoropyridin-3-yl)-1H-pyrazol-4-yl)methyl)-3H-[1,2,3]triazolo[4,5-b]pyridin-5-amine] here?
Its IC50 is 101 to 999 nM.

How did the IC50 turn out when `COc1cccc(-n2cc(Cc3cc(N)nc4[nH]nnc34)cn2)c1` [Example 23, 7-((1-(3-Methoxyphenyl)-1H-pyrazol-4-yl)methyl)-3H-[1,2,3]triazolo[4,5-b]pyridin-5-amine] was run?
The IC50 was 1 to 100 nM.

For `Cc1ccc(-n2cc(Cc3cc(N)nc4[nH]nnc34)cn2)cc1` [Example 26, 7-((1-(4-Methylphenyl)-1H-pyrazol-4-yl)methyl)-3H-[1,2,3]triazolo[4,5-b]pyridin-5-amine], which IC50 is on record?
The IC50 was 101 to 999 nM.

With `COc1ccc(-n2cc(Cc3cc(N)nc4[nH]nnc34)cn2)cc1` [Example 27, 7-((1-(4-Methoxyphenyl)-1H-pyrazol-4-yl)methyl)-3H-[1,2,3]triazolo[4,5-b]pyridin-5-amine] as the compound, how does the IC50 read?
Its IC50 is 101 to 999 nM.

For `COc1ccccc1-n1cc(Cc2cc(N)nc3[nH]nnc23)cn1` [Example 28, 7-((1-(2-Methoxyphenyl)-1H-pyrazol-4-yl)methyl)-3H-[1,2,3]triazolo[4,5-b]pyridin-5-amine], which IC50 is on record?
Its IC50 is 101 to 999 nM.

`Nc1cc(Cc2cnn(-c3cccc(Br)c3)c2)c2nn[nH]c2n1` [Example 29, 7-((1-(3-Bromophenyl)-1H-pyrazol-4-yl)methyl)-3H-[1,2,3]triazolo[4,5-b]pyridin-5-amine] was tested. Which IC50 did it give?
The IC50 was 1 to 100 nM.

With `Nc1cc(Cc2cnn(-c3cccnc3)c2)c2nn[nH]c2n1` [Example 30, 7-((1-(Pyridin-3-yl)-1H-pyrazol-4-yl)methyl)-3H-[1,2,3]triazolo[4,5-b]pyridin-5-amine] as the compound, how does the IC50 read?
The IC50 was 1 to 100 nM.

With `COc1cc(-n2cc(Cc3cc(N)nc4[nH]nnc34)cn2)ccn1` [Example 32, 7-((1-(2-Methoxypyridin-4-yl)-1H-pyrazol-4-yl)methyl)-3H-[1,2,3]triazolo[4,5-b]pyridin-5-amine] as the compound, how does the IC50 read?
The IC50 was 101 to 999 nM.

`COc1ccc2cccc(-n3cc(Cc4cc(N)nc5[nH]nnc45)cn3)c2c1` [Example 35, 7-((1-(7-Methoxynaphthalen-1-yl)-1H-pyrazol-4-yl)methyl)-3H-[1,2,3]triazolo[4,5-b]pyridin-5-amine] was tested. Which IC50 did it give?
The IC50 was 1 to 100 nM.

How did the IC50 turn out when `Nc1cc(Cc2cnn(-c3cccc(OCc4ccccc4)c3)c2)c2nn[nH]c2n1` [Example 37, 7-((1-(3-(Benzyloxy)phenyl)-1H-pyrazol-4-yl)methyl)-3H-[1,2,3]triazolo[4,5-b]pyridin-5-amine] was run?
The IC50 was 1 to 100 nM.

Which IC50 does the source give for `Nc1cc(Cc2cnn(-c3ccc(=O)[nH]c3)c2)c2nn[nH]c2n1` [Example 38, 5-(4-((5-Amino-3H-[1,2,3]triazolo[4,5-b]pyridin-7-yl)methyl)-1H-pyrazol-1-yl)pyridin-2(1H)-one] here?
The IC50 was 101 to 999 nM.

For `Nc1cc(Cc2cnc(-c3ccc(F)cc3)s2)c2nn[nH]c2n1` [Example 47, 7-((2-(4-Fluorophenyl)thiazol-5-yl)methyl)-3H-[1,2,3]triazolo[4,5-b]pyridin-5-amine], which IC50 is on record?
The IC50 was 101 to 999 nM.

How did the IC50 turn out when `Nc1cc(Cc2ccc(-c3ccccc3)s2)c2nn[nH]c2n1` [Example 49, 7-((5-Phenylthiophen-2-yl)methyl)-3H-[1,2,3]triazolo[4,5-b]pyridin-5-amine] was run?
The IC50 was 1 to 100 nM.

With `Cc1cc(Cc2cc(N)nc3[nH]nnc23)sc1C` [Example 50, 7-((4,5-Dimethylthiophen-2-yl)methyl)-3H-[1,2,3]triazolo[4,5-b]pyridin-5-amine] as the compound, how does the IC50 read?
Its IC50 is 101 to 999 nM.

`Nc1cc(Cc2ccc(-c3ccccn3)s2)c2nn[nH]c2n1` [Example 51, 7-((5-(Pyridin-2-yl)thiophen-2-yl)methyl)-3H-[1,2,3]triazolo[4,5-b]pyridin-5-amine] was tested. Which IC50 did it give?
The IC50 was 1 to 100 nM.

With `CS(=O)(=O)c1ccc(Cn2cc(Cc3cc(N)nc4[nH]nnc34)cn2)cc1` [Example 58, 7-((1-(4-(Methylsulfonyl)benzyl)-1H-pyrazol-4-yl)methyl)-3H-[1,2,3]triazolo[4,5-b]pyridin-5-amine] as the compound, how does the IC50 read?
Its IC50 is 101 to 999 nM.

How did the IC50 turn out when `CC(c1ccccc1)n1cc(Cc2cc(N)nc3[nH]nnc23)cn1` (centres unmarked) [Example 63, 7-((1-(1-Phenylethyl)-1H-pyrazol-4-yl)methyl)-3H-[1,2,3]triazolo[4,5-b]pyridin-5-amine] was run?
The IC50 was 1 to 100 nM.

For `Nc1cc(Cc2ccc(C(F)(F)F)o2)c2nn[nH]c2n1` [Example 70, 7-{[5-(Trifluoromethyl)furan-2-yl]methyl}-3H-[1,2,3]triazolo[4,5-b]pyridin-5-amine], which IC50 is on record?
Its IC50 is 1000 to 10000 nM.

How did the IC50 turn out when `NC(=O)c1ccc(Cn2cc(Cc3cc(N)nc4[nH]nnc34)cn2)cc1` [Example 73, 4-((4-((5-Amino-3H-[1,2,3]triazolo[4,5-b]pyridin-7-yl)methyl)-1H-pyrazol-1-yl)methyl)benzamide] was run?
Its IC50 is 1000 to 10000 nM.
